Experimental findings from US9611223B2, “3-aryl-5-substituted-isoquinolin-1-one compounds and their therapeutic use” (INSTITUTE OF CANCER RESEARCH: ROYAL CANCER HOSPITAL (THE), priority 2013, dated 2017) are described below.

One test deals with T1, TNKS1 (Homo sapiens, UniProt O95271, M1266I).
T1 construct: expresses the active PARP domain of TNKS1 as a polyhistidine tagged protein; made in house; host or cells: E. coli Rosetta2(DE3)
Description: TNKS1/PARP Biochemical Assay. How it is done:
TNKS1/PARP Biochemical Assay
Tankyrase activity was assayed using a 96-well format HT Universal Chemiluminescent PARP Assay Kit (Trevigen, Inc, cat. no. 4676-096-K) according to the manufacturer's instructions. In short, tankyrase/PARP activity is quantified by the incorporation of biotinylated nicotinamide adenine dinucleotide (biotin-NAD^+) onto the immobilised pseudo substrate, Histone. The extent of poly(Biotin-ADP)ribosylation (PARylation) in the presence of increasing dose of inhibitor is then quantified by binding of streptavidin conjugated horse radish peroxidase (strep-HRP) followed by chemiluminescent detection.
Prior to assay initiation, inhibitor stocks were prepared in aqueous DMSO (10% (v/v)) from 5 millimolar (mM) stock in 100% DMSO (Sigma Aldrich, cat. no. 265855) as 10× concentrations. For the primary assay (i.e., single dose at 1 micromolar (μM) final concentration) this corresponded to 10 μM in 10% DMSO. For IC50 determination, this corresponded to 100 μM, 30 μM, 10 μM, 3.0 μM, 1.0 μM, 0.30 μM, 0.10 μM and 0 μM in 10% DMSO for final concentrations of 10 μM, 3.0 μM, 1.0 μM, 0.30 μM, 0.10 μM, 0.030 μM, 0.010 μM, and 0 μM with 1% (v/v) final DMSO. The assay was initiated by the addition of 10× inhibitor (5 microliters (μL)) or 10% aqueous DMSO (5 μL) to triplicate wells. Twenty microliters of diluted TNKS1 protein (200 nanomolar (nM) final conc.) in PARP buffer (Trevigen, Inc, cat. no. 4671-096-02) was added to each histone coated well, which was previously hydrated with PARP buffer. Triplicate wells with 1% DMSO/buffer alone (no enzyme) were also added as a measure of assay ‘noise’. Positive control for PARP inhibition included the addition of 4-amino-1,8-naphthalimide (Sigma Aldrich, cat. no A0966) in corresponding doses.
The mixture was incubated for 10 minutes at room temperature and the PARylation reaction initiated by the addition of PARP cocktail (25 μL, Trevigen, Inc) containing biotin-NAD^+ (Trevigen, Inc, cat. no. 4670-500-01), activated DNA (Trevigen, Inc, cat. no. 4671-096-06) and PARP buffer. The reaction was incubated for 1.5 hours (for TNKS1) or 1 hour (for PARP1) at room temperature. The reaction mixture was then removed by aspiration and the wells washed (3×200 μL) with phosphate buffered saline containing Triton X-100 (0.1% (v/v), Sigma Aldrich cat. no. T8787). The wells were then washed (3×200 μL) with phosphate buffered saline and then incubated with strep-HRP (50 μL, Trevigen, Inc, cat. no. 4800-30-06) in strep-diluent (1:500 dilution, Trevigen Inc, cat. no. 4671-096-04) for 1 hour at room temperature. The Strep-HRP mixture was then aspirated and the wells washed (3×200 μL) with phosphate buffered saline containing Triton X-100 (0.1% (v/v)) followed by phosphate buffered saline (3×200 μL) and then incubated with PeroxyGlow™ reagent (100 μL, Trevigen, Inc, cat. nos. 4675-096-01, 4675-096-02, room temperature, mixed 1:1).
The amount of light emitted as a result of the peroxidase-chemiluminescent reagent reaction was in proportion to the extent of poly(Biotin-ADP)ribosylation and was immediately measured with a Victor^2 plate reader (Perkin Elmer, luminescence detection assay, luminescent units described as ‘Counts Per Second’ (CPS)). The data were normalised to the DMSO control after subtraction of ‘noise’ and was expressed as % PARP activity as a function of inhibitor dose. Inhibition was expressed as 100%−(% PARP activity). Dose response curves used to determine IC50 values were Log transformed and analysed by non-linear regression analysis (variable slope) using Prism (GraphPad Software, Inc) and were presented as IC50 with 95% confidence interval to determine relative potency.
Tankyrase1 (pNIC-Bsa4-TNKS1^PARP) expression construct was obtained from the Structural Genomics Consortium (SGC) and expresses the active PARP domain of TNKS1 as a polyhistidine tagged protein. […]

For another test, the system named is HT55 cells. Briefly: Long-Term Clonogenic Assay (HT55 cells). Format: cell-based. The settings on record: Homo sapiens, 12-14 days, read-out: cell inhibitory SF50 (HT55). How it is done:
Clonogenic Inhibition in DLD1 or HT55 Cells
In order to determine the efficacy of chronic dosing of putative TNKS inhibitors, long term clonogenic or ‘colony formation’ assays were carried out. This included the sparse seeding of cells in a 6-well dish followed by continuous dosing of cells over 12-14 days (depending on relative cell growth). Appropriate cell lines (DLD1 or HT55) were seeded at 500 cells/well in a 6-well dish in DMEM supplemented with FBS. After overnight incubation, cells were treated with the appropriate putative TNKS inhibitor at 10 μM, 3 μM, 1 μM, 0.30 μM, 0.1 μM and 0 μM at 0.2-1% final DMSO concentration (cell line dependent) in DMEM supplemented with 10% FBS (DLD1 cells were dosed in DMEM supplemented with 0.5% FBS). Dosages were carried out in triplicate. Cell media containing compound or DMSO only was replenished every 48 hours. On termination of the assay, plates were read with Cell Titre Glo reagent and luminescence measured on an appropriate plate reader.
The data was normalised to the DMSO control and was expressed as surviving fraction as a function of inhibitor dose. Dose response curves used to determine SF50 values were Log transformed and analysed by non-linear regression analysis (variable slope) using Prism (GraphPad Software, Inc).

Each structure is given as a SMILES string.

T1 sequence (O95271 1112-1317 M1266I): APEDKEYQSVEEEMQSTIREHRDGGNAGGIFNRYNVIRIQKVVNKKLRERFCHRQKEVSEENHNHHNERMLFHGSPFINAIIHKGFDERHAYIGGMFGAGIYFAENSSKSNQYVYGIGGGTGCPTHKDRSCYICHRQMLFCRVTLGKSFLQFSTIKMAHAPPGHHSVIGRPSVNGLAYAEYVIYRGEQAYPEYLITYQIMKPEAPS

Turning to `CN1CCN(Cc2ccc(-c3cc4c(C#N)cccc4c(=O)[nH]3)cc2)CC1` [IQ-002, 3-[4-(4-Methyl-piperazin-1-ylmethyl)-phenyl]-1-oxo-1,2-dihydro-isoquinoline-5-carbonitrile], the results for the IC50 against TNKS1 and in the test with HT55 cells were under 0.05 µM and under 5 µM, respectively.
The matching figures for `CN(C)C1CCN(Cc2ccc(-c3cc4c(C#N)cccc4c(=O)[nH]3)cc2)C1` (centres unmarked) [IQ-011]: under 0.1 µM and under 5 µM.
The matching figures for `CN(C)C1CCN(Cc2ccc(-c3cc4c(C#N)cccc4c(=O)[nH]3)cc2)CC1` [IQ-012]: under 0.05 µM and under 5 µM.
The matching figures for `CN1CCN(Cc2ccc(-c3cc4c(C#N)cc(F)cc4c(=O)[nH]3)cc2)CC1` [IQ-014]: under 0.1 µM and under 5 µM.
